Test results as given in US20060275812A1, “Assay for agonists and antagonists of ion channels and for regulators of genetic expression” (University of Pittsburgh of the Commonwealth System of …, priority 2005, published 2006).

Test system: vTT infected 7b cells
Experiment: Detection of apoptosis (DePsipher MPT; CaspACE activated caspases)
Assay type: cell-based
Settings: overnight capsaicin (3 μm) stimulation
Procedure: Detection of Apoptosis. The DePsipher kit (R&D systems, Minneapolis, Minn.) was used to detect the initiation of mitochondrial permeability transition (MPT) in 7b cells. Briefly, vTT or QOZ infected cells (12 hpi, 0.1 PFU/cell) were incubated with 3 μm capsaicin for one hour at 37° C. in a 5% CO2 incubator. Cells were then loaded with 1 μl DePsipher/ml in pre-warmed culture media for 15-20 min at 37° C. in a 5% CO2 incubator. Following two washes in prewarmed media, cells were immediately imaged using an inverted fluorescence microscope (Carl Zeiss Inc.). For activated caspase detection, the CaspACE FITC-VAD-FMK In-Situ Marker kit (Promega, Madison, Wis.) was used. Briefly, CaspACE FITC-VAD-FMK was added to a final concentration of 10 μM to 7b cells infected with vTT or QOZ virus (12 hpi, 0.3 PFU/cell). Cells were incubated for 20 minutes at 37° C. in a 5% CO2 incubator. Following two washes in PBS, cells were fixed for 30 minutes in 10% formalin, washed three times with PBS and imaged using an inverted fluorescence microscope (Carl Zeiss Inc.).

COc1cc(CNC(=O)CCCC/C=C/C(C)C)ccc1O [capsaicin]
activated caspases: positive
